# Laboratory results taken from US20240309003A1, “HETEROCYCLIC COMPOUNDS AS TRIGGERING RECEPTOR EXPRESSED ON MYELOID CELLS 2 AGONISTS AND METHODS OF USE” (Vigil Neuroscience, Inc., priority 2021, published 2024).
# Biological target: T1, human TREM2 (Homo sapiens, UniProt Q9NZC2)
# T1 construct: expressed in transfected cells; host or cells: HEK293T
# Experiment: TREM2 agonist potency by cellular phosphorylation of Syk (AlphaLisa) in HEK293T-hTREM2 cells
# Format: cell-based
# Method: In Vitro Measurement of Triggering Receptor Expressed on Myeloid Cells 2 Activity Using Cellular Phosphorylation of Spleen Tyrosine Kinase (“Syk”) Assays
# Measurement of TREM2 agonist potency was done using a HEK cell line expressing human TREM2 and DAP12 (HEK293T-hTREM2 cells). Binding of small molecules to, and activation of, TREM2 increases the phosphorylation of Syk. The resultant levels of Syk phosphorylation are measured using a commercial AlphaLisa reagent kit. To perform the assay, HEK-hTREM2 cells were plated at 14,000 cells per well in a 384 well plate, in 25 μL of complete growth media and incubated at 37° C., 5% CO2 for 20-24 hours.
# Prior to the assay, test compounds were diluted in the 384 well plates in assay buffer and allowed to equilibrate for 30 minutes. Growth media was removed from cell plates by inversion on blotting paper, and 25 μL of test articles in assay buffer was added to cells. Cells were incubated for 45 minutes at room temperature. After 45 minutes, assay buffer was removed and 10 μL of lysis buffer was added. Plates were shaken for 20 minutes at 350 RPM at room temperature. After complete lysis, AlphaLisa reagents were added to the lysate, and fluourescence intensity was measured using a Perkin Elmer Envision plate reader. Intensities were used to generate a standard curve, and % activation was calculated. Curve fitting was performed using Prism v9 software, log(agonist) vs response-variable slope (four parameters), and EC50s were calculated from the curve fit.
# This assay may be used to test any of the compounds described herein to assess and characterize a compound's ability to act as an agonist of TREM2.
# [1] = HEK293 cells expressing human TREM2 and DAP12, Table D-2
# [2] = HEK293 cells expressing human TREM2 and DAP12, Table D
# T1 sequence (Q9NZC2 19-230): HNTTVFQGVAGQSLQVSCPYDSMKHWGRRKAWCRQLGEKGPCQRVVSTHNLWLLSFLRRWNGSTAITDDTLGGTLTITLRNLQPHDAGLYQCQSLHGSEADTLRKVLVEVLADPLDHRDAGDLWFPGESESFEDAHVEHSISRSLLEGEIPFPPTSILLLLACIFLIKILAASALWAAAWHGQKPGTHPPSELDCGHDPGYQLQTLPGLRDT
# T1 sequence (O43914 22-113 partner): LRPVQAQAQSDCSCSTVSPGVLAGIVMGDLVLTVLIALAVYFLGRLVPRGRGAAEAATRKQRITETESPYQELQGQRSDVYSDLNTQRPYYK
SMILES,EC50 [1],EC50 [2]
"Cc1nc2nc([C@H]3CCO[C@@H](c4cnn(CCF)c4)C3)nc(-c3ccc(F)cc3F)c2nc1C [Example 150, 4-(2,4-difluorophenyl)-2-((2R,4S)-2-(1-(2-fluoroethyl)-1H-pyrazol-4-yl)tetrahydro-2H-pyran-4-yl)-6,7-dimethylpteridine]",–,< 50 nM
"Cc1cc([C@H]2C[C@@H](c3cc(-c4ccc(Cl)cc4F)c4cc(C)c(C)nc4n3)CCO2)ccn1 [Example 184, 5-(4-chloro-2-fluorophenyl)-2,3-dimethyl-7-((2R,4S)-2-(2-methylpyridin-4-yl)tetrahydro-2H-pyran-4-yl)-1,8-naphthyridine]",–,< 50 nM
"Cc1nc2nc([C@H]3CCO[C@@H](c4cnn(C5CC5)c4)C3)nc(C3C[C@@H](F)[C@@H](F)C3)c2nc1C (stereo partly drawn) [Example 245, 2-((2R,4S)-2-(1-cyclopropyl-1H-pyrazol-4-yl)tetrahydro-2H-pyran-4-yl)-4-((3R,4S)-3,4-difluorocyclopentyl)-6,7-dimethylpteridine]",–,500 to 3000 nM
"Cc1nc2nc([C@H]3CCO[C@@H](c4cnn(C5CC5)c4)C3)nc(C34CC(C(C)C)(C3)C4)c2nc1C [Example 127, 2-((2R,4S)-2-(1-cyclopropyl-1H-pyrazol-4-yl)tetrahydro-2H-pyran-4-yl)-4-(3-isopropylbicyclo[1.1.1]pentan-1-yl)-6,7-dimethylpteridine]",–,< 50 nM
Cc1nc2nc([C@@H]3CCO[C@H](c4ccc(=O)n(C)c4)C3)nc(-c3ccc(F)cc3F)c2nc1C [Example 200],–,< 50 nM
"CC(=O)OCc1nc2c(-c3ccc(F)cc3F)nc([C@@H]3CCO[C@@H](c4cnn(C5CC5)c4)C3)cc2nc1C [Example 246, (7-((2R,4R)-2-(1-cyclopropyl-1H-pyrazol-4-yl)tetrahydro-2H-pyran-4-yl)-5-(2,4-difluorophenyl)-2-methylpyrido[3,4-b]pyrazin-3-yl)methylacetate]",–,3000 to 100000 nM
"Cc1nc2nc([C@H]3CCO[C@@H](c4cnn(C5CC5)c4)C3)nc(-c3cc(F)c(F)cc3F)c2nc1C [Example 153, 2-((2R,4S)-2-(1-cyclopropyl-1H-pyrazol-4-yl)tetrahydro-2H-pyran-4-yl)-6,7-dimethyl-4-(2,4,5-trifluorophenyl)pteridine]",–,< 50 nM
Cc1nc2nc([C@@H]3CCO[C@H](c4cccn(C)c4=O)C3)nc(-c3ccc(F)cc3F)c2nc1C [Example 204],–,500 to 3000 nM
"Cc1cc([C@H]2C[C@@H](c3nc(-c4ccc(C(F)(F)F)nc4)c4nc(C)c(C)nc4n3)CCO2)ccn1 (racemic) [Example 4, 6,7-dimethyl-2-((2R,4S)-2-(2-methylpyridin-4-yl)tetrahydro-2H-pyran-4-yl)-4-(6-(trifluoromethyl)pyridin-3-yl)pteridine]",–,50 to 500 nM
"Cc1nc2cc([C@H]3CCO[C@@H](c4cnn(C5CC5)c4)C3)nc(-c3ccc(F)cc3F)c2nc1C [Example 210, 7-((2R,4S)-2-(1-cyclopropyl-1H-pyrazol-4-yl)tetrahydro-2H-pyran-4-yl)-5-(2,4-difluorophenyl)-2,3-dimethylpyrido[3,4-b]pyrazine]",–,< 50 nM
"Cc1cc([C@H]2C[C@@H](c3nc(-c4cc(F)c(Cl)c(F)c4)c4nc(C)c(C)nc4n3)CCO2)ccn1 (racemic) [Example 84, 4-(4-chloro-3,5-difluoro-phenyl)-6,7-dimethyl-2-[(2R,4S)-2-(2-methyl-4-pyridyl)tetrahydropyran-4-yl]pteridine]",–,< 50 nM
Cc1nc2nc([C@H]3CCO[C@@H](c4cccn(C)c4=O)C3)nc(-c3ccc(F)cc3F)c2nc1C [Example 203],–,3000 to 100000 nM
"Cc1ccc2c(-c3ccc(F)cc3F)nc([C@H]3CCO[C@@H](c4cnn(C5CC5)c4)C3)nc2n1 [Example 215, 2-((2R,4S)-2-(1-cyclopropyl-1H-pyrazol-4-yl)tetrahydro-2H-pyran-4-yl)-4-(2,4-difluorophenyl)-7-methylpyrido[2,3-d]pyrimidine]",–,50 to 500 nM

# Other lines, results leading:
EC50 [1],EC50 [2],SMILES
50 to 500 nM,–,"Cc1nc2nc(C3CCS(=O)(=O)N(c4cnn(C5CC5)c4)C3)nc(-c3ccc(Cl)cc3F)c2nc1C (racemic) [Example I-1733, 4-[4-(4-chloro-2-fluoro-phenyl)-6,7-dimethyl-pteridin-2-yl]-2-(1-cyclopropylpyrazol-4-yl)thiazinane 1,1-dioxide]"
50 to 500 nM,–,"Cc1cc([C@@H]2CN(c3nc(-c4ccc(Cl)cc4F)c4nc(C)c(C)nc4n3)CCO2)no1 [Example I-1270, 4-[4-(4-chloro-2-fluoro-phenyl)-6,7-dimethyl-pteridin-2-yl]-2-(5-methylisoxazol-3-yl)morpholine]"
< 50 nM,–,"CCCc1nc2nc(N3C[C@@H](C)O[C@@H](c4cnn(C5CC5)c4)C3)nc(-c3ccc(F)cc3F)c2nc1C (single isomer, unassigned) [Example I-1288]"
500 to 3000 nM,–,"Cc1cc(-c2nc(N3C[C@@H](C)O[C@@H](c4cnn(C5CC5)c4)C3)nc3nc(C)c(C)nc23)on1 [Example I-1086, (2S,6R)-2-(1-cyclopropylpyrazol-4-yl)-4-[6,7-dimethyl-4-(3-methylisoxazol-5-yl)pteridin-2-yl]-6-methyl-morpholine]"
50 to 500 nM,–,"Cc1nc2c(-c3ccc(Cl)cc3F)nc([C@H]3CCO[C@@H](c4cnn(C5CC5)c4)C3)nc2nc1CC(F)F [Example I-1477, 4-(4-chloro-2-fluoro-phenyl)-2-[(2R,4S)-2-(1-cyclopropylpyrazol-4-yl)tetrahydropyran-4-yl]-7-(2,2-difluoroethyl)-6-methyl-pteridine]"
50 to 500 nM,–,"Cc1nc2nc(N3C[C@@H](C)O[C@@H](c4ccn(C5CC5)n4)C3)nc(-c3ccc(F)cc3F)c2nc1C [Example I-1265, (2R,6R)-2-(1-cyclopropylpyrazol-3-yl)-4-[4-(2,4-difluorophenyl)-6,7-dimethyl-pteridin-2-yl]-6-methyl-morpholine]"
< 50 nM,–,"Cc1cc(F)c(-c2nc([C@H]3CCO[C@@H](c4cnn(C5CC5)c4)C3)nc3nc(C)c(C)nc23)cc1F [Example I-1572, 2-[(2R,4S)-2-(1-cyclopropylpyrazol-4-yl)tetrahydropyran-4-yl]-4-(2,5-difluoro-4-methyl-phenyl)-6,7-dimethyl-pteridine]"
50 to 500 nM,–,"Fc1cc(Cl)ccc1-c1nc([C@@H]2CCO[C@H](c3cnn(C4CC4)c3)C2)nc2nc(CC(F)(F)F)cnc12 [Example I-1338, 4-(4-chloro-2-fluoro-phenyl)-2-[(2S,4R)-2-(1-cyclopropylpyrazol-4-yl)tetrahydropyran-4-yl]-7-(2,2,2-trifluoroethyl)pteridine]"
< 50 nM,–,"Cc1nc2nc([C@H]3CCO[C@@H](c4cnn(C5CC5)c4)C3)nc(-c3ccc(F)cc3F)c2nc1C(F)F [Example I-1323, 2-[(2R,4S)-2-(1-cyclopropylpyrazol-4-yl)tetrahydropyran-4-yl]-6-(difluoromethyl)-4-(2,4-difluorophenyl)-7-methyl-pteridine]"
50 to 500 nM,–,"CCc1nc2c(-c3ccc(F)cc3F)nc([C@H]3CCO[C@@H](c4cnn(C5CC5)c4)C3)cc2nc1C [Example I-1557, 7-((2R,4S)-2-(1-cyclopropyl-1H-pyrazol-4-yl)tetrahydro-2H-pyran-4-yl)-5-(2,4-difluorophenyl)-3-ethyl-2-methylpyrido[3,4-b]pyrazine]"
< 50 nM,–,"Cc1nc2nc(N3C[C@@H](C)O[C@@H](c4cnn(C5CC5)c4)C3)nc(-c3ccc(F)cc3F)c2nc1C(F)F [Example I-1609, (2S,6R)-2-(1-cyclopropylpyrazol-4-yl)-4-[6-(difluoromethyl)-4-(2,4-difluorophenyl)-7-methyl-pteridin-2-yl]-6-methyl-morpholine]"
< 50 nM,–,"Cc1nc2nc([C@H]3CCO[C@@H](c4cnn(C5CC5)c4)C3)nc(-c3ccc(C(F)(F)F)c(F)c3F)c2nc1C (stereo in doubt) [Example I-1588, 4-[2,3-difluoro-4-(trifluoromethyl)phenyl]-6,7-dimethyl-2-[(2R,4S)-2-(1-cyclopropylpyrazol-4-yl)tetrahydropyran-4-yl]pteridine]"
50 to 500 nM,–,"Cc1nc2nc(N3C[C@@H](c4cnn(C)c4)O[C@@H](C4CC4)C3)nc(-c3ccc(F)cc3F)c2nc1C [Example I-1674, (2S,6R)-2-cyclopropyl-4-[4-(2,4-difluorophenyl)-6,7-dimethyl-pteridin-2-yl]-6-(1-methylpyrazol-4-yl)morpholine]"
< 50 nM,–,"Cc1nc2nc(C3CCO[C@@H](c4cnn(C5CC5)c4)C3)nc(-c3cc(C(F)(F)F)c(F)cc3F)c2nc1C (stereo partly drawn) [Example I-1585, 2-((2R)-2-(1-cyclopropyl-1H-pyrazol-4-yl)tetrahydro-2H-pyran-4-yl)-4-(2,4-difluoro-5-(trifluoromethyl)phenyl)-6,7-dimethylpteridinee]"
< 50 nM,–,"Cc1cc2c(C3CCC(C(F)F)CC3)nc(N3C[C@@H](C)O[C@@H](c4cnn(C5CC5)c4)C3)nc2nc1C (stereo partly drawn) [Example I-1328, (2S,6R)-2-(1-cyclopropylpyrazol-4-yl)-4-[4-[4-(difluoromethyl)cyclohexyl]-6,7-dimethyl-pyrido[2,3-d]pyrimidin-2-yl]-6-methyl-morpholine]"
